Each molecule was assayed against human recombinant PDE4B1 enzyme (Homo sapiens (Human), UniProt Q07343) (assay: Inhibition of PDE4B1 activity by cAMP HTRF assay). Settings: human recombinant PDE4B1, cAMP 40 nM, pH 7.4.
Chain of human recombinant PDE4B1 enzyme (Q07343 whole entry): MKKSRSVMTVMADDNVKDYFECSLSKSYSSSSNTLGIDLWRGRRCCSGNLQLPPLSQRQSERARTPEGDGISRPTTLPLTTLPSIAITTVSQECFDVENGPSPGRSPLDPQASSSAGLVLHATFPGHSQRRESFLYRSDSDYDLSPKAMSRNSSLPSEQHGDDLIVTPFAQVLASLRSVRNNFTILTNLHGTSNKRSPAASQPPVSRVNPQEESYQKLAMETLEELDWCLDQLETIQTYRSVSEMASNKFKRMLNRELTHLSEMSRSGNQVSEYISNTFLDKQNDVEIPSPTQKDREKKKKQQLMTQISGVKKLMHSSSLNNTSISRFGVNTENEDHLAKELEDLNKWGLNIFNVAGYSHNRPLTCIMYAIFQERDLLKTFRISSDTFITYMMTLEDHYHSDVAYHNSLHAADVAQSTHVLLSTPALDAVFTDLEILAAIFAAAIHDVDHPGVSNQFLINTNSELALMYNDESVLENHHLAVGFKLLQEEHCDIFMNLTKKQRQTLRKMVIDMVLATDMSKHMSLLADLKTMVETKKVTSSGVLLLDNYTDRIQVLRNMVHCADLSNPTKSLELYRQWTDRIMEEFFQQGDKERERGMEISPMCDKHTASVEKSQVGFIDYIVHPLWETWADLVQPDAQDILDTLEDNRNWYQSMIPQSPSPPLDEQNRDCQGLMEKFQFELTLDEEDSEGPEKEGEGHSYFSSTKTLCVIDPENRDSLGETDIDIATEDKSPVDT
Type: biochemical
Description: Determination of the inhibition of the compounds on PDE4B1 activity by using cAMP HTRF® assay
The inhibitory effect of the compounds on human PDE4B1 enzyme activity was determined by quantifying the 5′-adenosine monophosphate (5′-AMP) formed from 3′,5′-cyclic adenosine monophosphate (cAMP).
The test compound or water (control) and human recombinant PDE4B1 enzyme (4.8 U) were mixed in a buffer solution (pH 7.4) consisting of 1× Hanks' balanced salt solution (HBSS), 5 mM HEPES, 3 mM MgCl2, and 0.1% BSA and incubated for 10 min. A cAMP enzyme substrate (final concentration 40 nM) was added, and the mixture was incubated at room temperature for 60 min. Then a fluorescent acceptor (Dye2 labeled with cAMP), a fluorescent donor (anti-cAMP antibody labeled with europium cryptate) and a non-specific phosphodiesterase inhibitor IBMX (3-isobutyl-1-methyl xanthine; final concentration 1 mM) were added. After 60 min, the fluorescence transfer related to the amount of remaining cAMP was measured on a microplate reader (Rubystar, BMG) at λex=337 nm, λem=620 nm and λem=665 nm. The enzyme activity is calculated from the ratio of the signals measured at 665 nm and 620 nm. The results are expressed as percent inhibition of the enzyme activity of the control (without PDE4 inhibitor). The enzyme was omitted for measurement of the basic control. The IC50 value (IC50=the concentration that caused the half-maximum inhibition of the specific activity of the control) is derived from dose-response measurements with eight different concentrations (n=2; repeated 2 times)
COc1ccc(/C=C/n2c(C)cc(=O)cc2C)cc1OCS(C)(=O)=O [Example 76, (E)-1-(3-methylsulfonemethoxy-4-methoxystyryl)-2,6-dimethylpyridin-4(1H)-one] showed an IC50 of 105 nM. In the case of COc1ccc(/C=C/n2c(C)cc(=O)cc2C)cc1OCC[S+](C)[O-] (stereo not shown) [Example 78, (E)-1-(3-methylsulfoxideethoxy-4-methoxystyryl)-2,6-dimethylpyridin-4(1H)-one], the IC50 is reported as 36 nM. Molecule COc1ccc(/C=C/n2c(C)cc(=O)cc2C)cc1OCCS(C)(=O)=O [Example 79, (E)-1-(3-methylsulfoneethoxy-4-methoxystyryl)-2,6-dimethylpyridin-4(1H)-one] has an IC50 of 160 nM. COc1ccc(/C=C/n2c(C)cc(=O)cc2C)cc1OC1CCS(=O)(=O)C1 (stereo not shown) [Example 81, (E)-1-(3-((1,1,-dioxotetrahydrothiophen-3-yl)oxy)-4-methoxystyryl)-2,6-dimethylpyridin-4(1H)-one] was tested, and the IC50 was 1.15 nM. COc1ccc(/C=C/n2c(C)cc(=O)cc2C)cc1O[C@H]1CCSC1 [Example 82, (S,E)-1-(3-(tetrahydrothiophen-3-yl)oxy-4-methoxystyryl)-2,6-dimethylpyridin-4(1H)-one] showed an IC50 of 7.5 nM. With COc1ccc(/C=C/n2c(C)cc(=O)cc2C)cc1O[C@H]1CCS(=O)(=O)C1 [Example 84, (S,E)-1-(3-((1,1-dioxotetrahydrothiophen-3-yl)oxy)-4-methoxy-styryl)-2,6-dimethylpyridin-4(1H)-one] the IC50 was 230 nM. Molecule COc1ccc(/C=C/n2c(C)cc(=O)cc2C)cc1O[C@@H]1CCSC1 [Example 85, (R,E)-1-(3-(tetrahydrothiophen-3-yl)oxy-4-methoxystyryl)-2,6-dimethylpyridin-4(1H)-one] has an IC50 of 3.8 nM. COc1ccc(/C=C/n2c(C)cc(=O)cc2C)cc1O[C@@H]1CCS(=O)(=O)C1 [Example 87, (R,E)-1-(3-((1,1-dioxotetrahydrothiophen-3-yl)oxy)-4-methoxy-styryl)-2,6-dimethylpyridin-4(1H)-one] was tested, and the IC50 was 78 nM. COc1cc(/C=C/n2c(C)cc(=O)cc2C)ccc1OC(F)F [Example 89, (E)-1-(3-methoxy-4-difluoromethoxy-styryl)-2,6-dimethylpyridin-4(1H)-one] gave an IC50 of 6.9 nM. Work on CSCOc1cc(/C=C/n2c(C)cc(=O)cc2C)ccc1OC(F)F [Example 90, (E)-1-(3-methylthiomethoxy-4-difluoromethoxy-styryl)-2,6-dimethylpyridin-4(1H)-one] yielded an IC50 of 3.8 nM. For Cc1cc(=O)cc(C)n1/C=C/c1ccc(OC(F)F)c(OC[S+](C)[O-])c1 (stereo not shown) [Example 91, (E)-1-(3-methylsulfoxidemethoxy-4-difluoromethoxystyryl)-2,6-dimethylpyridin-4(1H)-one], the IC50 was 75 nM. For Cc1cc(=O)cc(C)n1/C=C/c1ccc(OC(F)F)c(OCS(C)(=O)=O)c1 [Example 92, (E)-1-(3-methylsulfonemethoxy-4-difluoromethoxy-styryl)-2,6-dimethylpyridin-4(1H)-one], the IC50 was 94 nM. Molecule CSCCOc1cc(/C=C/n2c(C)cc(=O)cc2C)ccc1OC(F)F [Example 93, (E)-1-(3-methylthioethoxy-4-difluoromethoxystyryl)-2,6-dimethylpyridin-4(1H)-one] has an IC50 of 12.9 nM. In the case of Cc1cc(=O)cc(C)n1/C=C/c1ccc(OC(F)F)c(OCC[S+](C)[O-])c1 (stereo not shown) [Example 94, (E)-1-(3-methylsulfoxideethoxy-4-difluoromethoxystyryl)-2,6-dimethylpyridin-4(1H)-one], the IC50 is reported as 137 nM. With Cc1cc(=O)cc(C)n1/C=C/c1ccc(OC(F)F)c(OCCS(C)(=O)=O)c1 [Example 95, (E)-1-(3-methylsulfoneethoxy-4-difluoromethoxystyryl)-2,6-dimethylpyridin-4(1H)-one] the IC50 was 260 nM. Molecule Cc1cc(=O)cc(C)n1/C=C/c1ccc(OC(F)F)c(OC2CCSC2)c1 (stereo not shown) [Example 96, (E)-1-((3-(tetrahydrothiophen-3-yl)oxy-4-difluoromethoxy)-styryl)-2,6-dimethylpyridin-4(1H)-one] has an IC50 of 2.4 nM. Cc1cc(=O)cc(C)n1/C=C/c1ccc(OC(F)F)c(O[C@H]2CCSC2)c1 [Example 97, (S,E)-1-(3-(tetrahydrothiophen-3-yl)oxy-4-difluoromethoxystyryl)-2,6-dimethylpyridin-4(1H)-one] was tested, and the IC50 was 3.7 nM. Molecule Cc1cc(=O)cc(C)n1/C=C/c1ccc(OC(F)F)c(O[C@H]2CCS(=O)(=O)C2)c1 [Example 99, (S,E)-1-(3-(1,1-dioxotetrahydrothiophen-3-yl)oxy-4-difluoromethoxystyryl)-2,6-dimethylpyridin-4(1H)-one] has an IC50 of 59 nM. For Cc1cc(=O)cc(C)n1/C=C/c1ccc(OC(F)F)c(O[C@@H]2CCSC2)c1 [Example 100, (R,E)-1-(3-(tetrahydrothiophen-3-yl)oxy-4-difluoromethoxystyryl)-2,6-dimethylpyridin-4(1H)-one], the IC50 was 1.5 nM. Work on Cc1cc(=O)cc(C)n1/C=C/c1ccc(OC(F)F)c(O[C@@H]2CCS(=O)(=O)C2)c1 [Example 102, (R,E)-1-(3-(1,1-dioxotetrahydrothiophen-3-yl)oxy-4-difluoromethoxystyryl)-2,6-dimethylpyridin-4(1H)-one] yielded an IC50 of 50 nM. With COc1ccc(/C(C)=C/n2c(C)cc(=O)cc2C)cc1OCC1CC1 [Example 103, (E)-1-(2-(3-cyclopropylmethoxy-4-methoxyphenyl)-2-methylethenyl)-2,6-dimethylpyridin-4(1H)-one] the IC50 was 14 nM. For COc1ccc(/C(=C/n2c(C)cc(=O)cc2C)c2ccccc2)cc1OCC1CC1 [Example 104-1, (E)-1-(2-(3-cyclopropylmethoxy-4-methoxyphenyl)-2-phenylethenyl)-2,6-dimethylpyridin-4(1H)-one], the IC50 was 1700 nM. Work on COc1ccc(/C(=C\n2c(C)cc(=O)cc2C)c2ccccc2)cc1OCC1CC1 [Example 104-2, (Z)-1-(2-(3-cyclopropylmethoxy-4-methoxyphenyl)-2-phenylethenyl)-2,6-dimethylpyridin-4(1H)-one] yielded an IC50 of 8400 nM. CC#C/C(=C\n1c(C)cc(=O)cc1C)c1ccc(OC)c(OCC2CC2)c1 [Example 105, (Z)-1-(2-(3-cyclopropylmethoxy-4-methoxyphenyl)pent-1-en-3-yn-1-yl)-2,6-dimethylpyridin-4(1H)-one] was tested, and the IC50 was 3 nM. With COc1ccc(/C(=C/n2c(C)cc(=O)cc2C)C(N)=O)cc1OCC1CC1 [Example 107, (Z)-2-(3-cyclopropylmethoxy-4-methoxyphenyl)-3-(2,6-dimethyl-4-carbonylpyridin-1(4H)-yl)-acrylamide] the IC50 was 450 nM. In the case of CNC(=O)/C(=C\n1c(C)cc(=O)cc1C)c1ccc(OC)c(OCC2CC2)c1 [Example 108, (Z)-2-(3-cyclopropylmethoxy-4-methoxyphenyl)-3-(2,6-dimethyl-4-carbonylpyridin-1(4H)-yl)-N-methylacrylamide], the IC50 is reported as 760 nM. Molecule COc1ccc(/C(=C/n2c(C)cc(=O)cc2C)C(=O)N(C)C)cc1OCC1CC1 [Example 109, (Z)-2-(3-cyclopropylmethoxy-4-methoxyphenyl)-3-(2,6-dimethyl-4-carbonylpyridin-1(4H)-yl)-N,N-dimethylacrylamide] has an IC50 of 180 nM. CCN(CC)C(=O)/C(=C\n1c(C)cc(=O)cc1C)c1ccc(OC)c(OCC2CC2)c1 [Example 110, (Z)-2-(3-cyclopropylmethoxy-4-methoxyphenyl)-3-(2,6-dimethyl-4-carbonylpyridin-1(4H)-yl)-N,N-diethylacrylamide] was tested, and the IC50 was 460 nM. Molecule COC(=O)/C(=C\n1c(C)cc(=O)cc1C)c1ccc(OC)c(OCC2CC2)c1 [Example 112, (Z)-methyl 2-(3-cyclopropylmethoxy-4-methoxyphenyl)-3-(2,6-dimethyl-4-carbonylpyridin-1(4H)-yl)-acrylate] has an IC50 of 138 nM. Work on CCOC(=O)/C(=C\n1c(C)cc(=O)cc1C)c1ccc(OC)c(OCC2CC2)c1 [Example 113, (Z)-ethyl 2-(3-cyclopropylmethoxy-4-methoxyphenyl)-3-(2,6-dimethyl-4-carbonylpyridin-1(4H)-yl)-acrylate] yielded an IC50 of 170 nM. For CC#C/C(=C\n1c(C)cc(=O)cc1C)c1ccc(OC(F)F)c(OCC2CC2)c1 [Example 114, (Z)-1-(2-(3-cyclopropylmethoxy-4-difluoromethoxyphenyl)pent-1-en-3-yn-1-yl)-2,6-dimethylpyridin-4(1H)-one], the IC50 was 1.6 nM. Work on COc1ccc(/C(C#N)=C/n2c(C)cc(=O)cc2C)cc1OC [Example 115] yielded an IC50 of 9.9 nM. Molecule COc1ccc(/C=C(\C(N)=O)n2c(C)cc(=O)cc2C)cc1OCC1CC1 [Example 117] has an IC50 of 3600 nM. Molecule COc1ccc(/C=C(\C(=O)N(C)C)n2c(C)cc(=O)cc2C)cc1OCC1CC1 [Example 118] has an IC50 of 320 nM.
